Data reported in patent publication US5189058A, “Iminodicarbonic, iminodicarbonodithioic, and thiocarbonylcarbamic acid esters useful as ACAT inhibitors” (Warner-Lambert Company, priority 1991, dated 1993).
pIC50: −log10 of the molar value. Read-outs that look alike come from different tables or passages of the source.

Key:
[1] = in vivo screen designated APCC (blood cholesterol in rats on high fat, high cholesterol diet); details: Rattus norvegicus, 16 h, male Sprague-Dawley rats, 30 mg/kg in CMC/Tween at 4 PM, PCC diet (0.5% cholic acid) overnight, sacrificed 8 AM, read-out: % Change (mg/dl)
Protocol: In one in vivo screen designated APCC, male Sprague-Dawley rats (200 to 225 g) were randomly divided into treatment groups and dosed at 4 PM with either vehicle (CMC/Tween) or suspensions of compounds in vehicle at a dose of 30 mg/kg. The normal chow diet was then replaced with a high fat, high cholesterol diet (designated PCC) containing 0.5% cholic acid. The rats consumed this diet ad libitum during the night and were sacrificed at 8 AM to obtain blood samples for cholesterol analysis using standard procedures. Statistical differences between mean cholesterol values for the same vehicle were determined using analysis of variance followed by Fisher's least significant test.

[2] = molecular target: T1, acyl-CoA: cholesterol acyltransferase (ACAT) (Oryctolagus cuniculus, UniProt G1SFD9); assay: in vitro ACAT inhibition (radiolabeled cholesterol oleate formed from radiolabeled oleic acid, rabbit intestinal microsomes); format: biochemical
T1 sequence (G1SFD9 1-524): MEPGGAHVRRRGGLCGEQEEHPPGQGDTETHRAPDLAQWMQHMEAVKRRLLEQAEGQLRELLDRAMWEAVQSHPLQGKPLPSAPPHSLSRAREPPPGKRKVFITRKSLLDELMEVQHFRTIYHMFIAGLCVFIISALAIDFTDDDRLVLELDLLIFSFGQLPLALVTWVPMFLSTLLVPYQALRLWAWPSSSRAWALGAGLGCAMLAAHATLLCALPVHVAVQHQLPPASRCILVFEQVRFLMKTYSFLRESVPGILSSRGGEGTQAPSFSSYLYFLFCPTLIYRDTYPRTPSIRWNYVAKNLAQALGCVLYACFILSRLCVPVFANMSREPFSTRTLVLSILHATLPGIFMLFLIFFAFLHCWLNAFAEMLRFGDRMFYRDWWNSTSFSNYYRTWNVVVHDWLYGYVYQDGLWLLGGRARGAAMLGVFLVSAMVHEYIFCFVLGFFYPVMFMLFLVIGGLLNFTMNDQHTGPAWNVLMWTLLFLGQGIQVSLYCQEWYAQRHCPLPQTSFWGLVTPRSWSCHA
Protocol: The ability of representative compounds of the present invention to inhibit ACAT was measured using an in vitro test more fully described in F. J. Field and R. G. Salone, Biochemica et Biophysica 712:557-570 (1982). The test assesses the ability of a test compound to inhibit the acylation of cholesterol by oleic acid by measuring the amount of radiolabeled cholesterol oleate formed from radiolabeled oleic acid in a tissue preparation containing rabbit intestinal microsomes.

[3] = rabbit intestinal microsomes, acylation of cholesterol by oleic acid, read-out: IC50

SMILES | change in vivo at 30 mg/kg [1] [%] | pIC50 [2, 3] | pIC50 [2]
CCCCCCCCCCCCC(C)OC(=O)NC(=O)Oc1c(C(C)C)cccc1C(C)C (racemic) [Example 3, Iminodicarbonic acid, 2,6-bis(1-methylethyl)phenyl 1-methyltridecyl ester, (±)] | -50 |  | 
CCCCCC(C)OC(=O)NC(=O)Oc1c(C(C)C)cccc1C(C)C (racemic) [Example 9, Iminodicarbonic acid, 2,6-bis(1-methylethyl)phenyl 1-methylhexyl ester, (± )] | -60 |  | 
CC(C)c1cccc(C(C)C)c1OC(=O)NC(=O)OC(c1ccccc1)c1ccccc1 [Example 1, Iminodicarbonic acid, 2,6-bis(1-methylethyl)phenyldiphenylmethyl ester] | -13 |  | 
CCCCCCCCCCCCOC(=O)NC(=O)Oc1c(C(C)C)cccc1C(C)C [Example 2, Iminodicarbonic acid, dodecyl 2,6-bis(1-methylethyl)phenyl ester] | -52 |  | 
CCCCCCCCCCCCC(C)(C)OC(=O)NC(=O)Oc1c(C(C)C)cccc1C(C)C [Example 4, Iminodicarbonic acid, 2,6-bis(1-methylethyl)phenyl 1,1-dimethyltridecyl ester] | -51 |  | 
CCCCC(C)(C)OC(=O)NC(=O)Oc1c(C(C)C)cccc1C(C)C [Example 5, Iminodicarbonic acid, 2,6-bis(1-methylethyl)phenyl 1,1-dimethylpentyl ester] | -29 |  | 
CCCCCCOC(=O)NC(=O)Oc1c(C(C)C)cccc1C(C)C [Example 6, Iminodicarbonic acid, 2,6-bis(1-methylethyl)phenyl hexyl ester] | -38 | 7.03 | 
CCCCC[C@H](C)OC(=O)NC(=O)Oc1c(C(C)C)cccc1C(C)C [Example 7, Iminodicarbonic acid, 2,6-bis(1-methylethyl)phenyl 1-methylhexyl ester (S)] | -25 |  | 
CCCCC[C@@H](C)OC(=O)NC(=O)Oc1c(C(C)C)cccc1C(C)C [Example 8, Iminodicarbonic acid, 2,6-bis(1-methylethyl)phenyl 1-methylhexyl ester (R)] | -49 |  | 
CCCCCCCCCCCCCCCCOC(=O)NC(=O)Oc1c(C(C)C)cccc1C(C)C [Example 10, Iminodicarbonic acid, 2,6-bis(1-methylethyl)phenyl hexadecyl ester] | -70 | 7.30 | 
CCCCCCCCCCCOC(=O)NC(=O)Oc1c(C(C)C)cccc1C(C)C [Example 11, Iminodicarbonic acid, 2,6-bis(1-methylethyl)phenyl undecyl ester] | -65 |  | 
CCCCCCCCCCCCCCCCCCOC(=O)NC(=O)Oc1c(C(C)C)cccc1C(C)C [Example 12, Iminodicarbonic acid, 2,6-bis(1-methylethyl)phenyl octadecyl ester] | -34 | 5.92 | 
CCCCCCCC(C)OC(=O)NC(=O)Oc1c(C(C)C)cccc1C(C)C (stereo not drawn) [Example 13] | -56 |  | 
CCCCCCCCC(C)OC(=O)NC(=O)Oc1c(C(C)C)cccc1C(C)C (stereo not drawn) [Example 14, Iminodicarbonic acid, 2,6-bis(1-methylethyl)phenyl 1-methylnonyl ester] | -54 |  | 
CCCCCCCCCCC(C)OC(=O)NC(=O)Oc1c(C(C)C)cccc1C(C)C (stereo not drawn) [Example 15, Iminodicarbonic acid, 2,6-bis(1-methylethyl)phenyl 1-methylundecyl ester] | -66 |  | 
CCCCCCCCOC(=O)NC(=O)Oc1c(C(C)C)cccc1C(C)C [Example 16, Iminodicarbonic acid, 2,6-bis(1-methylethyl)phenyl octyl ester] | -47 |  | 
CCCCCCCCCCOC(=O)NC(=O)Oc1c(C(C)C)cccc1C(C)C [Example 17, Iminodicarbonic acid, 2,6-bis(1-methylethyl)phenyl decyl ester] | -43 |  | 

SMILES | change in vivo at 30 mg/kg [1] [%] | pIC50 [2, 3] | pIC50 [2]
CCCCCCCCCCCCSC(=O)NC(=O)Oc1c(C(C)C)cccc1C(C)C [Example 18, [(Dodecylthio)carbonyl] -carbamic acid, 2,6-bis(1-methylethyl)phenyl ester] | -63 | 7.55 | 
CC(C)c1cccc(C(C)C)c1OC(=O)NC(=O)Sc1c(C(C)C)cccc1C(C)C [Example 19, 2,6-Bis[[(1-methylethyl)phenyl]thio]carbamic acid, 2,6-bis(1-methylethyl)phenyl ester] | -20 |  | 
CCCCCCCCCCSC(=O)NC(=O)Oc1c(C(C)C)cccc1C(C)C [Example 20, [(Decylthio)carbonyl]carbamic acid, 2,6-bis(1-methylethyl)phenyl ester] | -52 |  | 
CC(C)c1cccc(C(C)C)c1OC(=O)NC(=O)Oc1c(C(C)C)cccc1C(C)C [Example 24, Iminodicarbonic acid, di[2,6-bis(1-methylethyl)phenyl]ester] | -43 |  | 
COC(=O)C(OC(=O)NC(=O)Oc1c(C(C)C)cccc1C(C)C)c1ccccc1 (stereo not drawn) [Example 25, α-[[[[[2,6-Bis(1-methylethyl)phenoxy]carbonyl]amino]carbonyl]oxy]benzeneacetic acid, methyl ester] | -12 |  | 
CC(C)c1cccc(C(C)C)c1OC(=O)NC(=O)Oc1cccc2ccccc12 [Example 26, Iminodicarbonic acid, [2,6-bis(1-methylethyl)phenyl](1-naphthalenyl) ester] | -11 | 5.92 | 
CC(C)c1cccc(C(C)C)c1OC(=O)NC(=O)Oc1ccccc1 [Example 27, Iminodicarbonic acid, 2,6-bis(1-methylethyl)phenyl phenyl ester] |  | 5.43 | 
CC(C)c1cccc(C(C)C)c1OC(=O)NC(=O)Sc1ccccc1 [Example 28] | -19 | 5.74 | 
CCCCCCCCCCCCOC(=O)NC(=O)Oc1c(OC)cc(OC)cc1OC [Example 29, Iminodicarbonic acid, dodecyl 2,4,6-trimethoxyphenyl ester] |  | < 5.30 | 
CCCCCCCCCCCCC(C)OC(=O)NC(=O)Oc1ccc(F)cc1F (stereo not drawn) [Example 30, Iminodicarbonic acid, 2,4-difluorophenyl 1-methyltridecyl ester] | -15 | < 5.30 | 
CCCCCCCCCCCCSC(=O)NC(=O)Sc1c(C(C)C)cccc1C(C)C [Example 31, Iminodicarbonodithioic acid, 5-[2,6-bis(1-methylethyl)phenyl] S'-dodecyl ester] | -35 | < 6.00 | 
O=C(NC(=O)Oc1c(-c2ccccc2)cccc1-c1ccccc1)Oc1c(-c2ccccc2)cccc1-c1ccccc1 [Example 32, Iminodicarbonic acid, di[1,1'[3',1"-terphenyl]-2-yl]ester] | -36 | 4.98 | 
Cc1cccc(C)c1SC(=O)NC(=O)Sc1c(C)cccc1C [Example 33, Iminodicarbonodithioic acid, S,S'-bis[2,6-bis(methyl)phenyl]ester] | -33 | 6.64 | 
CCCCCCCCCCCCOC(=O)NC(=O)Sc1c(C(C)C)cccc1C(C)C [Example 34, [[[2,6-Bis(1-methylethyl)phenyl]thio]carbonyl]carbamic acid, dodecyl ester] |  | < 5.30 | 
CC(C)(C)c1cccc(C(C)(C)C)c1OC(=O)NC(=O)Oc1c(C(C)(C)C)cccc1C(C)(C)C [Example 35, Iminodicarbonic acid bis[2,6-bis(1,1-dimethylethyl)phenyl]ester] | -4 |  | 
O=C(NC(=O)OC(c1ccccc1)c1ccccc1)OC(c1ccccc1)c1ccccc1 [Example 36, Iminodicarbonic acid, di(diphenylmethyl)ester] |  | < 5.30 | 
CCCCCCCCCCCCC(C)OC(=O)N(C)C(=O)Oc1c(C(C)C)cccc1C(C)C (stereo not drawn) [Example 37, Methyliminodicarbonic, 2,6-bis(1-methylethyl)phenyl 1-methyltridecyl ester] | -8 |  | 6.22
